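1) Cells in 96-well plates. 2) Compound, 48 h, 5 concentrations. 3) Linear interpolation between surrounding doses. 4) Unreached endpoint = highest concentration. GI50 is the concentration that inhibits growth by half. At the TGI there is no net growth.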
Legend:
Assay in all cases: DTP human tumour cell line panel, 48 h
NCI-H23 lung = system: NCI-H23 lung
OVCAR-8 ovarian = system: OVCAR-8 ovarian
SW-620 colon = system: SW-620 colon
MOLT-4 leukemia = system: MOLT-4 leukemia
IGROV1 ovarian = system: IGROV1 ovarian
ACHN renal = system: ACHN renal
SK-OV-3 ovarian = system: SK-OV-3 ovarian
KM12 colon = system: KM12 colon
HL-60(TB) leukemia = system: HL-60(TB) leukemia
PC-3 prostate = system: PC-3 prostate

Row | Structure (SMILES) | TGI (NCI-H23 lung) [µM] | TGI (OVCAR-8 ovarian) [µM] | TGI (SW-620 colon) [µM] | TGI (MOLT-4 leukemia) [µM] | TGI (IGROV1 ovarian) [µM] | TGI (ACHN renal) [µM] | TGI (SK-OV-3 ovarian) [µM] | TGI (KM12 colon) [µM] | TGI (HL-60(TB) leukemia) [µM] | GI50 (NCI-H23 lung) [µM] | GI50 (OVCAR-8 ovarian) [µM] | GI50 (SW-620 colon) [µM] | GI50 (MOLT-4 leukemia) [µM] | GI50 (IGROV1 ovarian) [µM] | GI50 (ACHN renal) [µM] | GI50 (SK-OV-3 ovarian) [µM] | GI50 (KM12 colon) [µM] | GI50 (HL-60(TB) leukemia) [µM] | GI50 (PC-3 prostate) [µM] | TGI (PC-3 prostate) [µM]
1 | Cn1c(=O)nc2n(-c3cccc(F)c3)c3ccccc3nc-2c1=O | 35.2 | 77.1 | 26.4 | 54.1 | 62.5 | 68.2 | > 100 | > 100 |  |  |  |  |  |  |  |  |  |  |  | 
2 | CO/C1=C\C(C)=C\C(C)C(O)C(C)C/C(C)=C/C=C/C(OC)C(C(C)C(O)C(C)C2(O)CC(O)C(C)C(C(C)C)O2)OC1=O (stereo not given) | 15 | 10.4 |  | 11.7 | 23.7 | 13.2 | 33.6 | 15 | 0.0136 |  |  |  |  |  |  |  |  |  |  | 
3 | Cc1c(C(=O)NCCO)[n+](=O)c2cc(Cl)ccc2n1[O-] | > 100 | > 100 | > 100 | > 100 | > 100 | > 100 | > 100 | > 100 | > 100 |  |  |  |  |  |  |  |  |  |  | 
4 | CC1(C)OC(=O)C=C([O-])O1.CC1(C)OC(=O)C=C([O-])O1.O=S(=O)([O-])c1ccc([O-])c2ncccc12.O=S(=O)([O-])c1ccc([O-])c2ncccc12.[Ti+4] | > 100 | > 100 | > 100 | > 100 | > 100 | > 100 | > 100 | > 100 | > 100 | > 100 | 83.4 | > 100 | 47.8 | > 100 | 50.3 | > 100 | > 100 | 34.1 |  | 
5 | Cc1ccc(S(=O)(=O)NC(=O)NC23CC4CC(CC(F)(C4)C2)C3)cc1 | > 100 | > 100 | > 100 | > 100 | > 100 | > 100 | > 100 | > 100 | > 100 |  |  |  |  |  |  |  |  |  |  | 
6 | CC(C)(C)NCc1cc(C(C)(C)C)cc(-c2ccc(Cl)cc2)c1O | 29.4 |  |  |  | 24.6 | 26.7 | 31.5 | 27.1 | 23.4 |  |  |  |  |  |  |  |  |  |  | 
7 | Cc1sc(C)c(Cc2c(C)sc(C)c2CCl)c1CCl | > 100 | > 100 | > 100 | > 100 | > 100 | > 100 | > 100 | > 100 | > 100 | > 100 | > 100 | > 100 | > 100 | > 100 | > 100 | > 100 | > 100 | > 100 |  | 
8 | CC(=O)OC1CC2C(C)(C)C(=O)C=C[C@]2(C)C2CCC3(C)C(c4ccoc4)C(=O)[C@H]4O[C@]43[C@]12C (stereo not given in full) | 50.4 | 49.9 | 59.2 | 46.6 | 78.9 | 45.1 | > 100 |  | 42.3 |  |  |  |  |  |  |  |  |  |  | 
9 | NC(=O)N/N=C/C(/C=N/NC(N)=O)[N+](=O)[O-] | > 100 |  | > 100 |  | > 100 | > 100 | > 100 | > 100 | > 100 |  |  |  |  |  |  |  |  |  |  | 
10 | CCCCCC(=O)c1ccc2[nH]c3c(C)cc([N+](=O)[O-])c(C)c3c2c1 | > 100 | > 100 | > 100 | > 100 |  | > 100 |  | > 100 | > 100 |  |  |  |  |  |  |  |  |  |  | 
11 | CC(=O)O[C@H]1CC[C@@]2(C)C(=CC[C@H]3[C@@H]4C/C(=C\c5cccc(OCCN6CCOCC6)c5)[C@H](OC(C)=O)[C@@]4(C)CC[C@@H]32)C1 | 23.8 | 20.8 | 15.7 |  | 80.2 | 42.9 | 34 | 14.2 | 14.6 | 6.97 | 8.69 | 4.87 |  | 25.6 | 13.8 | 6.85 | 3.84 | 3.61 | 4.5 | 16.4
12 | COc1ccc2c(c1OC)C1=C(C2=O)c2cc3c(cc2CCN1)OCO3 | > 100 | > 100 | 47.5 | 83.9 | > 100 | > 100 |  | 78 | 53.9 |  |  |  |  |  |  |  |  |  |  | 
13 | CCNC(=O)C#CC(=O)NCC | > 100 | > 100 | > 87.7 | > 100 | > 100 | > 100 | > 100 | > 100 | > 53.9 | > 10 | > 10 | > 10 | > 10 |  | > 10 |  | > 10 | > 10 |  | 
14 | O=S(=O)(NCC1CCC(CNc2ccc(Cl)cc2)CC1)c1ccc(-c2ccccc2)cc1 (stereo not given) | > 50 | > 50 | > 50 |  | > 50 | > 50 | > 50 | > 50 | > 50 | 20.6 | 41.4 | > 50 |  | > 50 | 18.3 | > 50 | > 50 | > 50 | 40.9 | > 50
15 | COc1ccc(C(N)=O)cc1N=NN(C)C | > 100 | > 100 | > 100 | > 100 | > 100 | > 100 | > 100 | > 100 | > 100 |  |  |  |  |  |  |  |  |  |  | 
16 | CN1NC2(CCCCC2)ON=C1c1ccccc1 | > 100 | > 100 | > 100 | > 100 | > 100 | > 100 | > 100 | > 100 | > 100 |  |  |  |  |  |  |  |  |  |  | 
17 | O=C1C[C@@H]2C(COC(=O)c3ccccc3)N(OCc3ccccc3)C[C@@H]2O1 (stereo not given in full) | > 100 | > 100 | > 100 | > 100 | > 100 | > 100 | > 100 | > 100 | > 100 |  |  |  |  |  |  |  |  |  |  | 
18 | N=c1nnc(=O)c2c(s1)-n1ncc(C(=O)O)c1NN2 | > 100 | > 100 | > 100 | > 100 | > 100 |  | > 100 | > 100 | > 100 |  |  |  |  |  |  |  |  |  |  | 
19 | Cc1c(C(=O)c2ccccc2C(=O)O)c2ccccc2n1C | > 100 | > 100 | > 100 | > 100 | > 100 | > 100 | > 100 | > 100 | > 100 |  |  |  |  |  |  |  |  |  |  | 
20 | O=[N+]([O-])c1ccc(N/N=C/c2c(O)ccc3ccccc23)nc1 | > 100 | > 100 | > 100 | > 100 | > 100 | > 100 | > 100 | > 100 |  | > 100 | 5.78 | 3.61 | 1.62 | 7.48 | 0.775 | > 100 | 8.73 |  | 48.7 | > 100

Reference: PubChem BioAssay (NCI)
